Test [1] concerns AKHR-mediated ERK1/2 activation. The test is classed as cell-based, Bombyx. To be noted: for Dose dependence of PKC inhibitor effect on ERK1/2 activation: inhibitor 0.03 μM to 3 μM, three independent experiments.
For test [2], the system named is adipokinetic effect of AKH. Particulars: M. sexta, in vivo; ref [44]; cited from earlier work.
The test system of test [3] is magnolol-induced lipolysis. To be noted: MEK inhibitor; ref [57]; cited from earlier work.
The test system of test [4] is fat body of Bombyx. Nature of the test: Lipolysis in the fat body of Bombyx. Particulars: MEK inhibitor treatment; preliminary experiment, data not shown.

Like-named read-outs stand apart in the source and are kept apart here.

With `CN(C)CCCn1cc(C2=C(c3c[nH]c4ccccc34)C(=O)NC2=O)c2ccccc21` [GF109203X], the “Dose dependence of PKC inhibitor effect on ERK1/2 activation” value in test [1] (1 hour, AKH 5 nM, 5 min) is listed as “decrease in the activation of ERK1/2 stimulated by 5 nM AKH in a dose-dependent manner”.

In the case of `O=S(=O)(NCCNC/C=C/c1ccc(Br)cc1)c1cccc2cnccc12` [H89], the “Dose dependence of inhibition of ERK1/2, PKA inhibitor” value in test [1] (H89 1 μM to 20 μM, 1 hour, AKH 5 nM, 5 min, mean ± S.E.M (n = 3)) is “Inhibition of ERK1/2 is dependent on the concentration of H89”. Also, the “Effect on ERK1/2 phosphorylation, PKA inhibitor” value in test [1] (H89 10 μM, 1 hour preincubation, 37°C, AKH 0.1 nM to 10 nM, 5 min, mean ± S.E.M (n = 3)) is given as “significantly decreased ERK1/2 phosphorylation”. For the same compound, the “Effect on AKH-induced ERK1/2 phosphorylation, PKA inhibitor” value in test [1] (H89 20 μM, 1 h, 37°C, AKH 5 nM, 5 min, Fig. 9) is listed as “significant decrease of AKH-induced phosphorylation of ERK1/2”.

Consider `COc1ccc2c(c1)c(C1=C(c3c[nH]c4ccccc34)C(=O)NC1=O)cn2CCCN(C)C` [Go6983], for which the “Effect on AKH-induced ERK1/2 phosphorylation, PKC inhibitor” value in test [1] (Go6983 3 μM, 1 h, 37°C, AKH 5 nM, 5 min, Fig. 9) is “significant decrease of AKH-induced phosphorylation of ERK1/2”. The “Dose dependence of PKC inhibitor effect on ERK1/2 activation” value in test [1] (1 hour, AKH 5 nM, 5 min) was “decrease in the activation of ERK1/2 stimulated by 5 nM AKH in a dose-dependent manner”.

In the case of `O=C(NCCN1CCC(n2c(=O)[nH]c3ccccc32)CC1)c1cc2cc(F)ccc2[nH]1` [FIPI], the “Effect of PLD inhibitor on ERK1/2 activation” value in test [1] (FIPI 1 μM, 1 hour, AKH 5 nM, 5 min, Fig. 4B, S1) is recorded as “could not block the activation of ERK1/2”.

`COc1ccc(CCN(C)CCCC(C#N)(c2ccc(OC)c(OC)c2)C(C)C)cc1OC` (stereo not drawn) [verapamil]: the “Effect of Ca2+ channel inhibitors on adipokinetic effect of AKH” value in test [2] was “effectively impair the adipokinetic effect of AKH”.

On to `COC(=O)C1=C(C)NC(C)=C(C(=O)OC)C1c1ccccc1[N+](=O)[O-]` [nifedipine], for which the “Effect of Ca2+ channel inhibitors on adipokinetic effect of AKH” value in test [2] is reported as “effectively impair the adipokinetic effect of AKH”.

On to `COc1cccc(-c2cc(=O)c3ccccc3o2)c1N` [PD98059], for which the “Effect on magnolol-induced lipolysis” value in test [3] is “inhibited”.

`COC[C@H]1OC(=O)c2coc3c2[C@@]1(C)C1=C(C3=O)[C@@H]2CCC(=O)[C@@]2(C)C[C@H]1OC(C)=O` [Wortmanmin, wortmannin]: the “Effect on AKH-induced ERK1/2 activation, PI3K inhibitor” value in test [1] (wortmannin 1 μM, 1 h, 37°C, AKH 5 nM, 5 min, Fig. 9, S2) is given as “no effect on ERK1/2 activation”.

Consider `N#CC(=C(/N)Sc1ccccc1N)/C(C#N)=C(/N)Sc1ccccc1N` [U0126], for which the “Effect on lipolysis in the fat body of Bombyx” value in test [4] is “blockade of lipolysis in the fat body of Bombyx”. Moreover, the “Effect on AKH-induced ERK1/2 phosphorylation, MEK inhibitor” value in test [1] (U0126 100 nM, 1 h, 37°C, AKH 5 nM, 5 min, Fig. 9) was “significant decrease of AKH-induced phosphorylation of ERK1/2”.

As for `CC(C)(C)n1nc(-c2ccc(Cl)cc2)c2c(N)ncnc21` [PP2], the “Effect on AKH-induced ERK1/2 activation, Src inhibitor” value in test [1] (PP2 10 μM, 1 h, 37°C, AKH 5 nM, 5 min, Fig. 9, S2) is “no effect on ERK1/2 activation”.

For the compound `COc1ccc2c(c1)CC[C@@H]1[C@@H]2CC[C@]2(C)[C@@H](NCCCCCCN3C(=O)C=CC3=O)CC[C@@H]12` [U73122], the “Effect of PLC inhibitor on ERK1/2 activation” value in test [1] (U73122 10 μM, 1 hour, AKH 5 nM, 5 min, Fig. 4A, S1) is listed as “could not block the activation of ERK1/2”.

Consider `CCCCCCCCCCCCCCCCCCOCC(COP(=O)([O-])OCC[N+](C)(C)C)OC` (stereo not drawn) [ET-18-OCH3], for which, in test [1] (ET-18-OCH3 100 μM, AKH 5 nM, S1), the “Effect of PLC inhibitor on ERK1/2 activation” value is “could not block the activation of ERK1/2”.

For the compound `COc1cc2ncnc(Nc3cccc(Cl)c3)c2cc1OC` [AG1478], the “Effect on AKH-induced ERK1/2 activation, EGFR inhibitor” value in test [1] (AG1478 1 μM, 1 h, 37°C, AKH 5 nM, 5 min, Fig. 9, S2) is recorded as “no effect on ERK1/2 activation”.

Take `CNC(=O)[C@H](Cc1c[nH]c2ccccc12)NC(=O)[C@@H](CC(=O)NO)CC(C)C` [GM6001]: the “Effect on AKH-induced ERK1/2 activation, MMP inhibitor” value in test [1] (GM6001 5 μM, 1 h, 37°C, AKH 5 nM, 5 min, Fig. 9, S2) is listed as “no effect on ERK1/2 activation”.

The record behind these values is PMC7437366 (Biochemistry, 2010).
